≈ marks a conversion by molar mass, not a printed value. Read-outs that look alike come from different tables or passages of the source.
Tested on: Klebsiella pneumoniae strain MS6771
Test: MIC by broth microdilution (CLSI)
Format: cell-based
Details: for antibiotic sensitivity of resistant strain: Klebsiella pneumoniae MS6771, addition of sub-inhibitory PBT2+zinc(II) ions; for MIC: Klebsiella pneumoniae, MS6771, Klebsiella pneumoniae
[1] = CQ: 0 μM, Zinc: 0 μM, read-out: MIC
[2] = CQ: 64 μM, Zinc: 256 μM, read-out: MIC
[3] = PBT2: 0 μM, Zinc: 0 μM, read-out: MIC
[4] = PBT2: 64 μM, Zinc: 256 μM, read-out: MIC
[5] = Zinc: 256 μM (CQ panel), read-out: MIC
[6] = Zinc: 256 μM (PBT2 panel), read-out: MIC

Structure (SMILES)	antibiotic sensitivity of resistant strain	MIC [1] [µg/mL]	MIC [2] [µg/mL]	MIC (CQ: 64 μM, read-out: MIC) [µg/mL]	MIC [3] [µg/mL]	MIC [4] [µg/mL]	MIC (PBT2: 64 μM, read-out: MIC) [µg/mL]	MIC [5] [µg/mL]	MIC [6] [µg/mL]	MIC (CQ: 0 μM, Zinc: 0 μM) [µg/mL]	MIC (CQ: 64 μM) [µg/mL]	MIC (CQ: 64 μM, Zinc: 256 μM) [µg/mL]	MIC (PBT2: 0 μM, Zinc: 0 μM) [µg/mL]	MIC (PBT2: 64 μM) [µg/mL]	MIC (PBT2: 64 μM, Zinc: 256 μM) [µg/mL]	MIC (Zinc: 256 μM (CQ panel)) [µg/mL]	MIC (Zinc: 256 μM (PBT2 panel)) [µg/mL]
NCC[C@H](O)C(=O)N[C@@H]1C[C@H](N)[C@@H](O[C@H]2O[C@H](CN)[C@@H](O)[C@H](O)[C@H]2O)[C@H](O)[C@H]1O[C@H]1O[C@H](CO)[C@@H](O)[C@H](N)[C@H]1O [Amikacin, amikacin]	not	> 128	> 128	> 128	> 128	> 128	> 128	> 128	> 128	–	–	–	–	–	–	–	–
CO[C@@]1(NC(=O)Cc2cccs2)C(=O)N2C(C(=O)O)=C(COC(N)=O)CS[C@@H]21 [Cefoxitin, cefoxitin]	–	128 (≈ 299 µM)	64 (≈ 150 µM)	64 (≈ 150 µM)	128 (≈ 299 µM)	64 (≈ 150 µM)	64 (≈ 150 µM)	128 (≈ 299 µM)	128 (≈ 299 µM)	–	–	–	–	–	–	–	–
CCO/N=C(\C(=O)N[C@@H]1C(=O)N2C(C(=O)[O-])=C(Sc3nc(-c4cc[n+](C)cc4)cs3)CS[C@H]12)c1nsc(N)n1 [Ceftaroline]	–	> 128	> 128	> 128	> 128	> 128	> 128	> 128	> 128	–	–	–	–	–	–	–	–
CC(C)(O/N=C(\C(=O)N[C@@H]1C(=O)N2C(C(=O)[O-])=C(C[n+]3ccccc3)CS[C@H]12)c1csc(N)n1)C(=O)O [Ceftazidime, ceftazidime]	–	32 (≈ 58.5 µM)	16 (≈ 29.3 µM)	16 (≈ 29.3 µM)	32 (≈ 58.5 µM)	32 (≈ 58.5 µM)	32 (≈ 58.5 µM)	32 (≈ 58.5 µM)	32 (≈ 58.5 µM)	–	–	–	–	–	–	–	–
C[C@H]1c2cccc(O)c2C(=O)C2=C(O)[C@]3(O)C(=O)C(C(N)=O)=C(O)[C@@H](N(C)C)[C@@H]3[C@@H](O)[C@@H]21 [Doxycycline, doxycycline]	–	8 to 16 (≈ 18 to 36 µM)	8 (≈ 18 µM)	8 (≈ 18 µM)	8 to 16 (≈ 18 to 36 µM)	4 (≈ 9 µM)	4 to 8 (≈ 9 to 18 µM)	8 to 16 (≈ 18 to 36 µM)	8 to 16 (≈ 18 to 36 µM)	–	–	–	–	–	–	–	–
C[C@@H](O)[C@H]1C(=O)N2C(C(=O)O)=C(S[C@@H]3CN[C@H](C(=O)N(C)C)C3)[C@H](C)[C@H]12 [Meropenem, meropenem]	–	64 (≈ 167 µM)	8 to 16 (≈ 20.9 to 41.7 µM)	8 to 16 (≈ 20.9 to 41.7 µM)	64 (≈ 167 µM)	16 (≈ 41.7 µM)	32 (≈ 83.4 µM)	16 to 32 (≈ 41.7 to 83.4 µM)	16 to 32 (≈ 41.7 to 83.4 µM)	–	–	–	–	–	–	–	–
CN(C)c1cc(NC(=O)CNC(C)(C)C)c(O)c2c1C[C@H]1C[C@H]3[C@H](N(C)C)C(O)=C(C(N)=O)C(=O)[C@@]3(O)C(O)=C1C2=O [Tigecycline, tigecycline]	became sensitive	–	–	–	–	–	–	–	–	4 (≈ 6.83 µM)	4 (≈ 6.83 µM)	4 (≈ 6.83 µM)	4 (≈ 6.83 µM)	2 (≈ 3.41 µM)	2 (≈ 3.41 µM)	4 (≈ 6.83 µM)	4 (≈ 6.83 µM)
COc1cc(Cc2cnc(N)nc2N)cc(OC)c1OC [Trimethoprim, trimethoprim]	–	> 128	> 128	> 128	> 128	> 128	> 128	> 128	> 128	–	–	–	–	–	–	–	–
